Key:
Assay type in all cases: cell-based
[1] = test system: ACE2 high expressing-HEK293T cells (ACE2h cells); settings: 24 h, even at 100 μM
Experimental: For cytotoxicity assay, ACE2^h cells were seeded into 96-well plates at a density of 1×10^4 cells per well and then treated with different concentrations of OA (0.01, 0.1, 1, 10, 100 μM) for 24 h, then 10 μL of Cell Counting Kit (IV08-500, Invigentech, USA) solution was added to each well followed by 2 h of incubation. The relative cell viability was assessed by the detection of the absorbance at 450 nm using a microplate reader (Infinite F50, Thermo Fisher, China). The survival rate of ACE2^h cells was calculated as the following formula: Survival rate = [(OD Treated –OD Blank) / (OD Control−OD Blank)] × 100%.

[2] = test system: SARS-CoV-2 Delta (B.1.617.2) pseudovirus into ACE2h cells; assay: microbe, parasite or virus in culture
[3] = test system: SARS-CoV-2 pseudovirus Omicron (B.1.1529) into ACE2h cells

O=C(O)C(=O)O [OA, Oxalic acid]
cytotoxic effect (cell viability) [1]: no significant cytotoxic effect
expression of green fluorescent protein in ACE2h cells [2]: significantly reduced
IC50 ([2]; Pseudovirus, read-out: IC50, inhibition of entry of Delta pseudovirus into ACE2h cells): 26 µM
luciferase activity compared to the control [3]: significantly reduced
